Experimental data as given in paper PMC7355955, “Validation of Pharmacological Protocols for Targeted Inhibition of Canalicular MRP2 Activity in Hepatocytes Using [^99mTc]mebrofenin Imaging in Rats” (Pharmaceutics, 2020).
Where two headings read alike, the source gives them in different places.

Assays:
human MRP2 = human MRP2 (Homo sapiens, UniProt Q92887); test: cell-based
Protocol: Stably transfected MDCK-II-MRP2 cells overexpressing human MRP2 were a kind gift from A. Schinkel ([…], The Netherlands). Cells were cultured in a controlled atmosphere at 37 °C, 5% CO2. The culture medium was composed of DMEM Glutamax (Dulbecco’s Modified Eagle Medium, 4.5 g/L D-glucose, pyruvate) supplemented with 10% fetal bovine serum and 1% antibiotics (penicillin and streptomycin 5000 U/mL). MRP2-mediated transport was assessed using the calcein-AM assay. Cells were seeded in 24-well plates (30,000 cells per well) in 500 μL of culture medium. […] After 30 min at 37 °C, the incubation buffer was removed and cell monolayers were rapidly washed with 300 μL of ice-cold buffer (Dulbecco’s phosphate buffered saline + CaCl2 + MgCl2). Cells were then lysed by 10 min of incubation with 500 μL of NaOH (10 mM). […] For each inhibitor, uptake data were normalized to describe the extent of inhibition from 0 to maximal (100%) inhibition.

[1] = system: hepatic OATP and MRP2 activity; design: method as in PMID 23440558; conditions: cited from earlier work
rats = conditions: rat, in vivo
[2] = system: hepatic OATP and MRP2 activity; conditions: rat; lowest doses: DTZ 10 mg/kg s.c., CsA 0.01 mg/kg i.v.
Protocol: [^99mTc]mebrofenin scintigraphy was performed using a clinical SPECT-CT camera (Symbia®, Siemens, Knoxville, TN, USA) with a Low Energy High Resolution (LEHR) collimator. In each session, 3 rats were placed in a row on the scanner bed and catheters were inserted in the caudal vein. Experiments were performed for control conditions or after injection of the different transporter inhibitors. RIF (40 mg/kg intravenously, i.v.) was injected immediately before [^99mTc]mebrofenin as previously described [33]. […] Rats were injected with [^99mTc]mebrofenin (39 ± 4 MBq, i.v.) followed by dynamic planar acquisitions. Acquisitions were terminated by a X-ray CT scan.
Images were analyzed with PMOD® software (version 3.9, PMOD Technologies LLC). Regions of interest (ROI) were manually drawn on the liver, intestine, heart (= image-derived blood curve) and urinary bladder. Corresponding TACs were generated by plotting the mean radioactivity amount in each ROI normalized to the injected dose in each animal (cps/MBq) versus time.

[3] = mice, lowest tested dose 12.5 mg/kg i.v. followed by 3.12 mg/kg intraperitoneal

Sequence of human MRP2 (Q92887 whole entry): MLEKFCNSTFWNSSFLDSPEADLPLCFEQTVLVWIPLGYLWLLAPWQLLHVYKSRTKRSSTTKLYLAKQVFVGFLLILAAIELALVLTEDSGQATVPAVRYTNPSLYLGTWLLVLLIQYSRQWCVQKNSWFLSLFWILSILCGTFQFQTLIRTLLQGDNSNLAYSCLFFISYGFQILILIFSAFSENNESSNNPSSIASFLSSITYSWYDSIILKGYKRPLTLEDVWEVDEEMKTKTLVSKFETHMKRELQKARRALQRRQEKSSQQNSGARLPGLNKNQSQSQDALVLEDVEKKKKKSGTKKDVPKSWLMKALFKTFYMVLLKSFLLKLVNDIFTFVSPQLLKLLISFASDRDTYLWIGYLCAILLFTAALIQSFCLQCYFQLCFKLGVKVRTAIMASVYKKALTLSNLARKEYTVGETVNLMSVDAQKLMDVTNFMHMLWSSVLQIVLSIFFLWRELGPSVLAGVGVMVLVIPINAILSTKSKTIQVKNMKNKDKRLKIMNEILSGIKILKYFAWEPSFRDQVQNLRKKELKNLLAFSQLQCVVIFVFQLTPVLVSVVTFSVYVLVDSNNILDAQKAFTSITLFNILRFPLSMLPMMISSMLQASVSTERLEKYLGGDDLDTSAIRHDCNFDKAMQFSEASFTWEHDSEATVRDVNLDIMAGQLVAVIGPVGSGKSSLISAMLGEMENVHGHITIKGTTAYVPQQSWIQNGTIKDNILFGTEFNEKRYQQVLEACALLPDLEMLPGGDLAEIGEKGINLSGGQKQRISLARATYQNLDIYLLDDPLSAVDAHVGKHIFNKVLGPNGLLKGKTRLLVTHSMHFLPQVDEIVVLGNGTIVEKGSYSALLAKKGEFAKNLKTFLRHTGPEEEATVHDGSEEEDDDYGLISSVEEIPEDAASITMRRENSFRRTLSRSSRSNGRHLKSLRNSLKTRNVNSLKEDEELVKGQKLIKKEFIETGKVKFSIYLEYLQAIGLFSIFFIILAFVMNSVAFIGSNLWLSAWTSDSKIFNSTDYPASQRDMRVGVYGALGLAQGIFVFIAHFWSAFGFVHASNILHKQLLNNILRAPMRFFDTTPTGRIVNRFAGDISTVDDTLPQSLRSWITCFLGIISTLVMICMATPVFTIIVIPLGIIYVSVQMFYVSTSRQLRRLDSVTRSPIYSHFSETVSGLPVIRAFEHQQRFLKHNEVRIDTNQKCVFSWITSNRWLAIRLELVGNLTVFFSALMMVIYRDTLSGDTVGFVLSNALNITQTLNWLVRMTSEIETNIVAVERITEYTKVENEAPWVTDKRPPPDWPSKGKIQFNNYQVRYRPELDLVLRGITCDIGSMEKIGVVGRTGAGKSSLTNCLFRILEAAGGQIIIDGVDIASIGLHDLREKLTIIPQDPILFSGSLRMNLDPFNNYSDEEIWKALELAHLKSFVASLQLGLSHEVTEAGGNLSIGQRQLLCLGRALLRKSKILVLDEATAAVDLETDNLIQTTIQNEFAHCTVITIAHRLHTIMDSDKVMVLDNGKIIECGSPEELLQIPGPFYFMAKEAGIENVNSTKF

Row | SMILES | IC50 (human MRP2) [µM] | concentration achieving full MRP2 inhibition (human MRP2; MDCK-II-MRP2 cells, calcein-AM assay) [µM] | change in AUCRbile/liver of [99mTc]mebrofenin (biliary excretion) ([1]; mice, higher doses of RIF) [%] | change in AUCRbile/liver of [99mTc]mebrofenin (biliary excretion) [1, 3] [%] | effect on liver uptake of [99mTc]mebrofenin [1, 3] | fold decrease in AUCRbile/liver with MRP2-deficiency ([1]; MRP2-deficient mice) | tolerance of i.v. doses higher than 3 mg/kg (rats) | outcome of intravenous injection (rats; iv, 40 mg/kg) | effect on initial liver uptake (AUCRliver/blood 0–3 min) of [99mTc]mebrofenin [2]
1 | CO[C@H]1/C=C/O[C@@]2(C)Oc3c(C)c(O)c4c(O)c(c(/C=N/N5CCN(C)CC5)c(O)c4c3C2=O)NC(=O)/C(C)=C\C=C\[C@H](C)[C@H](O)[C@@H](C)[C@@H](O)[C@@H](C)[C@H](OC(C)=O)[C@@H]1C [RIF, rifampicin] | 210 | > 500 | −94 | −25 | did not impact |  |  |  | 
2 | Cc1cc(C)c(NC(=O)CN(CC(=O)[O-])CC(=O)[O-])c(C)c1Br.Cc1cc(C)c(NC(=O)CN(CC(=O)[O-])CC(=O)[O-])c(C)c1Br.[99Tc+4] [[^99mTc]mebrofenin] |  |  |  |  |  | ~ 10 fold |  |  | 
3 | COc1ccc([C@@H]2Sc3ccccc3N(CCN(C)C)C(=O)[C@@H]2OC(C)=O)cc1 [DTZ, Diltiazem] | 4.4 |  |  |  |  |  | poor tolerance | lethal | did not affect
